# Values joined by “and” are separate entries in the source; they are usually repeats but may differ in a detail not shown here. Equal entries are not always repeated. Toxic doses and inconclusive results are not listed.
# Tested on: P388 leukemia ip, CD2F1 mice, survival T/C
# Assay: NCI In Vivo Anticancer Drug Screen. Data for tumor model P388 Leukemia (intraperitoneal) in CD2F1 (CDF1) mice
# Settings: endpoint: median survival time, higher = longer survival
# In short: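 Mice carrying the transplanted tumor received test compound or vehicle. Survival was recorded in each group, and the value is the treated-group measurement divided by that of the vehicle-treated control group.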
# [1] = dose: 25.0 mg/kg/injection, schedule: Q01DX005 (ip), vehicle: Klucel (hydroxypropylcellulose) (HPC)
# [2] = dose: 100.0 mg/kg/injection, schedule: Q01DX009 (ip), vehicle: saline with Tween-80
# [3] = dose: 200.0 mg/kg/injection, schedule: Q01DX009 (ip), vehicle: saline with Tween-80
smiles,measurement,setting,value
CCCCc1ccc(N2C(N)=NC(N)=NC2(C)C)cc1,T/C,"dose: 3.12 mg/kg/injection, schedule: Q01DX005 (ip), vehicle: Klucel (hydroxypropylcellulose) (HPC)",108 % of control and 106 % of control and 111 % of control
same,T/C,"dose: 6.25 mg/kg/injection, schedule: Q01DX005 (ip), vehicle: Klucel (hydroxypropylcellulose) (HPC)",110 % of control [middle of 4 runs]
same,T/C,"dose: 12.5 mg/kg/injection, schedule: Q01DX005 (ip), vehicle: Klucel (hydroxypropylcellulose) (HPC)",114 % of control [middle of 4 runs]
same,T/C,[1],120 % of control and 109 % of control
Clc1ccc(Oc2ccc(N3C=Nc4ccc(Oc5ccc(Cl)cc5)cc4C3)cc2)cc1,T/C,[2],110 % of control
same,T/C,[3],100 % of control
same,T/C,"dose: 400.0 mg/kg/injection, schedule: Q01DX009 (ip), vehicle: saline with Tween-80",115 % of control
CC12CCC(S)CC1=CCC1C2CCC2(C)/C(=N/NC(N)=S)CCC12 (stereo not given),T/C,"dose: 25.0 mg/kg/injection, schedule: Q01DX009 (ip), vehicle: distilled water + Tween-80",105 % of control
same,T/C,"dose: 50.0 mg/kg/injection, schedule: Q01DX009 (ip), vehicle: distilled water + Tween-80",100 % of control
same,T/C,"dose: 100.0 mg/kg/injection, schedule: Q01DX009 (ip), vehicle: distilled water + Tween-80",105 % of control
same,T/C,"dose: 200.0 mg/kg/injection, schedule: Q01DX009 (ip), vehicle: distilled water + Tween-80",98 % of control
same,T/C,"dose: 400.0 mg/kg/injection, schedule: Q01DX009 (ip), vehicle: distilled water + Tween-80",107 % of control
CN1c2ccccc2C(=O)Nc2cnc(Cl)nc21,T/C,[1],94 % of control
same,T/C,"dose: 50.0 mg/kg/injection, schedule: Q01DX005 (ip), vehicle: Klucel (hydroxypropylcellulose) (HPC)",108 % of control
CC[C@@]12CN3CCc4c([nH]c5ccccc45)[C@@](C(=O)OC)(c4cc5c(cc4OC)N(C=O)[C@H]4[C@@](O)(C(=O)OC)[C@H](OC(C)=O)[C@]6(CC)C=CCN7CC[C@]54[C@@H]76)C[C@H](C3=O)[C@@H]1O2,T/C,"dose: 4.0 mg/kg/injection, schedule: Q01DX001 (ip), vehicle: water",113 % of control and 118 % of control
same,T/C,"dose: 8.0 mg/kg/injection, schedule: Q01DX001 (ip), vehicle: water",115 % of control and 116 % of control
same,T/C,"dose: 32.0 mg/kg/injection, schedule: Q01DX001 (ip), vehicle: water",118 % of control
CCn1c(Cl)c(/C=N\Nc2ccccc2[N+](=O)[O-])c2ccccc21,T/C,"dose: 12.5 mg/kg/injection, schedule: Q01DX001 (ip), vehicle: Klucel (hydroxypropylcellulose) (HPC)",94 % of control
same,T/C,"dose: 25.0 mg/kg/injection, schedule: Q01DX001 (ip), vehicle: Klucel (hydroxypropylcellulose) (HPC)",88 % of control
CC1[C@@]2(O[C@@H]3C=C4C5CCC6Cc7nc8c(nc7C[C@@]6(C)C5C[C@H](O)[C@@]4(C)[C@]13O)CC1CCc3c(cc4c5c3C(O)C[C@H]5[C@@H](C)C3(O4)OC(C)(C)CC3O)[C@]1(C)C8)O[C@@](C)(CO)C[C@@H]2O (stereo not given in full),T/C,"dose: 12.5 micrograms/kg/injection, schedule: Q01DX009 (ip), vehicle: saline + alcohol",109 % of control
same,T/C,"dose: 25.0 micrograms/kg/injection, schedule: Q01DX009 (ip), vehicle: saline + alcohol",107 % of control
same,T/C,"dose: 100.0 micrograms/kg/injection, schedule: Q01DX009 (ip), vehicle: saline + alcohol",98 % of control
CC(C)CNN(CC(C)C)C(N)=O,T/C,[2],102 % of control
same,T/C,[3],105 % of control
CC[PH+](CC)CC[S-].CC[PH+](CC)CC[S-].[Au+].[Au+],T/C,"dose: 2.5 mg/kg/injection, schedule: Q01DX009 (ip), vehicle: Klucel (hydroxypropylcellulose) (HPC)",109 % of control
same,T/C,"dose: 5.0 mg/kg/injection, schedule: Q01DX009 (ip), vehicle: Klucel (hydroxypropylcellulose) (HPC)",114 % of control and 115 % of control
same,T/C,"dose: 20.0 mg/kg/injection, schedule: Q01DX009 (ip), vehicle: Klucel (hydroxypropylcellulose) (HPC)",153 % of control
same,T/C,"dose: 40.0 mg/kg/injection, schedule: Q01DX009 (ip), vehicle: Klucel (hydroxypropylcellulose) (HPC)",87 % of control
N#Cc1ccc(N)cc1C#N,T/C,"dose: 50.0 mg/kg/injection, schedule: Q01DX009 (ip), vehicle: Klucel (hydroxypropylcellulose) (HPC)",94 % of control
same,T/C,"dose: 100.0 mg/kg/injection, schedule: Q01DX009 (ip), vehicle: Klucel (hydroxypropylcellulose) (HPC)",94 % of control
same,T/C,"dose: 200.0 mg/kg/injection, schedule: Q01DX009 (ip), vehicle: Klucel (hydroxypropylcellulose) (HPC)",96 % of control
COc1cc2cc[n+]3c(C)c4ccc(OC)c(OC)c4cc3c2cc1OC (tested in a mixture with another compound),T/C,"dose: 20.0 mg/kg/injection, schedule: Q01DX009 (ip), vehicle: saline",150 % of control
same,T/C,"dose: 40.0 mg/kg/injection, schedule: Q01DX009 (ip), vehicle: saline",154 % of control and 166 % of control
CCC1(CCC(C)C)C(=O)N(CCCl)C(=O)N(CCCl)C1=O,T/C,"dose: 50.0 mg/kg/injection, schedule: Q01DX009 (ip), vehicle: saline with Tween-80",100 % of control
same,T/C,[2],105 % of control
same,T/C,[3],96 % of control
COc1ccc(N=N/N=c2\sc3cc(OC)ccc3n2C)cc1,T/C,"dose: 7.5 mg/kg/injection, schedule: Q01DX005 (ip), vehicle: saline with Tween-80",113 % of control
same,T/C,"dose: 15.0 mg/kg/injection, schedule: Q01DX005 (ip), vehicle: saline with Tween-80",104 % of control
same,T/C,"dose: 30.0 mg/kg/injection, schedule: Q01DX005 (ip), vehicle: saline with Tween-80",112 % of control and 117 % of control
same,T/C,"dose: 60.0 mg/kg/injection, schedule: Q01DX005 (ip), vehicle: saline with Tween-80",104 % of control
